Results taken from ChEMBL document CHEMBL3817795, “Identification and optimisation of a series of N-(4-anilino-2-pyridyl)acetamide activin receptor-like kinase 1 (ALK1) inhibitors” (Medchemcomm, 2016).
Converted amounts (≈) assume the structure as drawn.

How the values were obtained:
[1] = Lipophilicity, log D of the compound at pH 7.4; format: physicochemical; details: buffer
[2] = Solubility of the compound; format: physicochemical

SMILES | logD [1] | solubility [2] [µM]
O=C(Nc1cc(Nc2c(Cl)ccc3c2OCO3)ccn1)C1CC1 | 3.3 | 46 (≈ 15.3 µg/mL)
O=C(Nc1cc(Nc2ccccc2)ccn1)C1CC1 | 3.3 | 
O=C(Nc1cc(Nc2cccc3c2OCO3)ccn1)C1CC1 | 3.7 | 
